How the values were obtained:
CT26 tumor cells = experiment: Subcutaneous syngeneic colorectal cancer model CT26 in female BALB/c mice; type: in vivo, mouse; conditions: Compound 29 30 mg/kg p.o. (QD or BID) in combination with anti-PD1 10 mg/kg i.p. BIW; FIG. 3
Experimental: The objective of this pharmacology study was to evaluate the anti-tumor growth efficacy of Compound 29 with in combination with anti-PD1 antibody (BP0146) or Isotype IgG2a (BP0089) in the treatment of the subcutaneous CT26 murine colorectal cancer model in female BALB/c mice.
Test particles were delivered via PO when the average tumor volume reached approximately 80 mm^3. Test articles was assessed at dose levels as described in Table 6. Tumor volumes and body weight were measured after the initiation of treatment.
The CT26 tumor cells were maintained in vitro with RPMI-1640 medium supplemented with 10% fetal bovine serum at 37° C. in an atmosphere of 5% CO^2 in air. The cells in exponential growth phase was harvested and quantitated by cell counter before tumor inoculation.
Each mouse was inoculated subcutaneously in the right lower flank region with CT26 tumor cells (5×10^5) in 0.1 ml of PBS for tumor development. […]
Tumor volumes were measured thrice per week after randomization in two dimensions using a caliper, and the volume was expressed in mm^3 using the formula: V=(L×W×W)/2, where V is tumor volume, L is tumor length (the longest tumor dimension) and W is tumor width (the longest tumor dimension perpendicular to L). […]
Tumor growth inhibition (TGI): TGI % is an indication of antitumor activity, and expressed as: TGI (%)=100×(1−T/C). […]

H22 tumor cells = experiment: Subcutaneous H22 murine liver cancer model in female BALB/c mice; type: in vivo; parameters: Dunnett's multiple comparisons test Mean Diff.: unit: mm3; conditions: for TGI (%): day 12; for Dunnett's multiple comparisons test Mean Diff.: tumor volume
Experimental: The objective of this pharmacology study was to evaluate the anti-tumor growth efficacy of Compound 85 with in combination with anti-PD1 antibody (BP0146) in the treatment of the subcutaneous H22 murine liver cancer model in female BALB/c mice. Compound 85 test particles were delivered via PO when the average tumor volume reached approximately 80 mm^3. Compound 85 was assessed at 4 different dose levels (2 mpk, 6 mpk, 10 mpk, and 20 mpk for QD) in combination with anti-PD1 antibody (10 mpk, BIW). Tumor volumes and body weight were measured three times per week after the initiation of treatment.
The H22 tumor cells were maintained in vitro with RPMI-1640 medium supplemented with 10% fetal bovine serum at 37° C. in an atmosphere of 5% CO2. Cells in the exponential growth phase were harvested and quantified by cell counter before tumor inoculation.
Each mouse was inoculated subcutaneously in the right front flank region with H22 tumor cells (1×10e6) in 0.1 ml of PBS for tumor development.
After tumor inoculation, the animals were checked daily for morbidity and mortality. During routine monitoring, the animals were checked for any effects of tumor growth and treatments on behavior such as mobility, food and water consumption, body weight gain/loss (Body weights were measured thrice per week after randomization), eye/hair matting and any other abnormalities. Mortality and observed clinical signs were recorded for individual animals in detail.
Tumor volumes were measured three times per week after randomization in two dimensions using a caliper, and the volume was expressed in mm3 using the formula: V=(L×W×W)/2, where V is tumor volume, L is tumor length (the longest tumor dimension) and W is tumor width (the longest tumor dimension perpendicular to L). Dosing, as well as tumor and body weight measurements, were conducted in a Laminar Flow Cabinet.
Tumor growth inhibition (TGI): TGI % is an indication of antitumor activity, expressed as: TGI (%)=100×(1−T/C). T and C are the mean tumor volume (or weight) of the treated and control groups on a given day.
The treatment was performed for 21 days and the study was terminated on day 20 post dosing initiation.

Structure (SMILES)	tumor growth inhibition of CT26 tumors (CT26 tumor cells)	TGI (%) (H22 tumor cells; Compound 85 2 mpk QD p.o. + anti-PD1 10 mpk BIW vs. Vehicle + isotype)	TGI (%) (H22 tumor cells; Compound 85 6 mpk QD p.o. + anti-PD1 10 mpk BIW vs. Vehicle + isotype)	tumor inhibition compared with anti-PD1 alone (H22 tumor cells; Compound 85 10 mpk QD and 20 mpk QD + anti-PD1 combination)	TGI (%) (H22 tumor cells; Compound 85 10 mpk QD p.o. + anti-PD1 10 mpk BIW vs. Vehicle + isotype)	complete regression (H22 tumor cells; Compound 85 20 mpk QD and anti-PD1 combination group, day 20)	TGI (%) (H22 tumor cells; Compound 85 20 mpk QD p.o. + anti-PD1 10 mpk BIW vs. Vehicle + isotype)	benefit in combination with anti-PD1 (H22 tumor cells; Compound 85 + anti-PD1)	anti-tumor efficacy compared to single agent treatment (H22 tumor cells; Compound 85 at 2, 6, 10 and 20 mpk in combination with Anti-PD-1)	tolerability (H22 tumor cells; Compound 85 up to 20 mpk QD in combination with anti-PD1)	Dunnett's multiple comparisons test Mean Diff. (H22 tumor cells; Vehicle + isotype vs. Compound 85 2 mpk QD + anti-PD1)	Dunnett's multiple comparisons test Mean Diff. (H22 tumor cells; Vehicle + isotype vs. Compound 85 6 mpk QD + anti-PD1)	Dunnett's multiple comparisons test Mean Diff. (H22 tumor cells; Vehicle + isotype vs. Compound 85 10 mpk QD + anti-PD1)	Dunnett's multiple comparisons test Mean Diff. (H22 tumor cells; Vehicle + isotype vs. Compound 85 20 mpk QD + anti-PD1)	loss of average body weight (H22 tumor cells; day 2 of treatment, Compound 85 20 mpk QD and anti-PD1 combination)
C[C@H]1CCCN(Cc2cc(C(F)(F)F)c3cn(-c4cccc(C5(Cc6nncn6C)COC5)c4)c(=O)n3c2)C1 [Compound 29]	further enhanced														
C[C@H]1CCCN(Cc2cc(C(F)(F)F)c3cn(-c4cccc([C@H](c5nncn5C)C5CCC5)c4)c(=O)n3c2)C1 [Compound 85]		74.8	82.87	statistically significant increase	85.2	One complete regression	87.73	additive or synergistic benefit	increased anti-tumor efficacy	No tolerability issue	2158	2391	2458	2531	less than 5%

— patent US20250375428A1, “CBL-B INHIBITORS AND ANTI-PD1/ANTI-PD-L1 FOR USE IN THE TREATMENT OF CANCER” (HOTSPOT THERAPEUTICS, INC., priority 2022, published 2025)
